Values joined by “and” are separate entries in the source; they are usually repeats but may differ in a detail not shown here. Equal entries are not always repeated. Toxic doses and inconclusive results are not listed. Cut-off read from the data, not from the text of the source: active = T/C of 150% or more; inactive = T/C below 125%.
System: L1210 leukemia ip in BDF1 mice, survival T/C
Experiment: NCI In Vivo Anticancer Drug Screen. Data for tumor model L1210 Leukemia (intraperitoneal) in B6D2F1 (BDF1) mice
Conditions: endpoint: mean survival time, higher = longer survival
In short: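 Value reflects the ratio of survival in compound-treated mice to survival in vehicle-treated controls, with both groups carrying the same transplanted tumor.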

[1] = dose: 100.0 mg/kg/injection, schedule: Q01DX009 (ip), vehicle: saline with Tween-80
[2] = dose: 100.0 mg/kg/injection, schedule: Q04DX003 (ip), vehicle: saline with Tween-80
[3] = dose: 200.0 mg/kg/injection, schedule: Q01DX009 (ip), vehicle: saline with Tween-80
[4] = dose: 200.0 mg/kg/injection, schedule: Q04DX003 (ip), vehicle: saline with Tween-80
[5] = dose: 400.0 mg/kg/injection, schedule: Q01DX009 (ip), vehicle: saline with Tween-80
[6] = dose: 400.0 mg/kg/injection, schedule: Q04DX003 (ip), vehicle: saline with Tween-80
[7] = dose: 100.0 mg/kg/injection, schedule: Q01DX009 (ip), vehicle: Klucel (hydroxypropylcellulose) (HPC)
[8] = dose: 200.0 mg/kg/injection, schedule: Q01DX009 (ip), vehicle: Klucel (hydroxypropylcellulose) (HPC)
[9] = dose: 400.0 mg/kg/injection, schedule: Q01DX009 (ip), vehicle: Klucel (hydroxypropylcellulose) (HPC)
[10] = dose: 100.0 mg/kg/injection, schedule: Q04DX002 (ip), vehicle: saline
[11] = dose: 200.0 mg/kg/injection, schedule: Q04DX002 (ip), vehicle: saline
[12] = dose: 400.0 mg/kg/injection, schedule: Q04DX002 (ip), vehicle: saline
[13] = dose: 100.0 mg/kg/injection, schedule: Q04DX003 (ip), vehicle: Klucel (hydroxypropylcellulose) (HPC)
[14] = dose: 200.0 mg/kg/injection, schedule: Q04DX003 (ip), vehicle: Klucel (hydroxypropylcellulose) (HPC)
[15] = dose: 400.0 mg/kg/injection, schedule: Q04DX003 (ip), vehicle: Klucel (hydroxypropylcellulose) (HPC)
[16] = dose: 100.0 mg/kg/injection, schedule: Q01DX001 (ip), vehicle: saline
[17] = dose: 200.0 mg/kg/injection, schedule: Q01DX001 (ip), vehicle: saline
[18] = dose: 400.0 mg/kg/injection, schedule: Q01DX001 (ip), vehicle: saline
[19] = dose: 100.0 mg/kg/injection, schedule: Q04DX002 (ip), vehicle: saline with Tween-80
[20] = dose: 100.0 mg/kg/injection, schedule: Q04DX003 (ip), vehicle: carboxymethylcellulose (CMC)
[21] = dose: 200.0 mg/kg/injection, schedule: Q04DX003 (ip), vehicle: carboxymethylcellulose (CMC)

Measured: T/C

CCCCCCCCCCCCCCCCCCCCCCCCC(O)C(=O)NC(CO)C(O)C(O)CCCCCCCCCCCCCC (stereo unspecified)
inactive: [1] 88 % of control | [2] 87 % of control | [3] 94 % of control | [4] 92 % of control | [5] 88 % of control | [6] 87 % of control

O=C(O)/C=C/C(=O)Nc1ccccc1NC(=O)/C=C/C(=O)O
inactive: [7] 101 % of control | [8] 92 % of control | [9] 97 % of control

CN(CCC#N)C(=O)Nc1ccccc1
inactive: dose: 100.0 mg/kg/injection, schedule: Q01DX Z (ip), vehicle: methylcellulose (MC) 103 % of control | dose: 200.0 mg/kg/injection, schedule: Q01DX Z (ip), vehicle: methylcellulose (MC) 95 % of control

NC(=O)C(O)C(O)C(O)C(O)CO (stereo unspecified)
inactive: [10] 91 % of control and 99 % of control | [11] 95 % of control and 96 % of control | [12] 95 % of control and 105 % of control

CC1(C)OC(C(O)CO)C(C2COC(=S)O2)O1 (stereo unspecified)
inactive: [10] 107 % of control | [11] 104 % of control | [12] 100 % of control

CCCCCCCCCCCCCCCC(=O)OC
inactive: [7] 105 % of control | [13] 98 % of control | [8] 101 % of control | [14] 93 % of control | [9] 97 % of control | [15] 98 % of control

C/C(=C\Cl)CN(C)C
inactive: [2] 97 % of control | [4] 94 % of control

CC(C)(C)NP(c1ccccc1)c1ccccc1
inactive: [16] 101 % of control | [17] 104 % of control | [18] 98 % of control

O=C1NCC2C3CCC(O3)C12 (stereo unspecified)
inactive: dose: 50.0 mg/kg/injection, schedule: Q04DX002 (ip), vehicle: saline 101 % of control | [10] 97 % of control and 103 % of control | [11] 105 % of control | [12] 97 % of control and 92 % of control

CSC(=S)NNC(=O)c1ccc([N+](=O)[O-])cc1
inactive: dose: 6.25 mg/kg/injection, schedule: Q04DX003 (ip), vehicle: saline sonified 96 % of control | dose: 12.5 mg/kg/injection, schedule: Q04DX003 (ip), vehicle: saline sonified 98 % of control

Nc1ncnc2c1ncn2C1OC(CO)C(NC(=S)SCc2ccccc2)C1O (stereo unspecified)
inactive: dose: 75.0 mg/kg/injection, schedule: Q01DX001 (ip), vehicle: saline 101 % of control | dose: 150.0 mg/kg/injection, schedule: Q01DX001 (ip), vehicle: saline 87 % of control | dose: 300.0 mg/kg/injection, schedule: Q01DX001 (ip), vehicle: saline 101 % of control

CC(=O)OCC1OC(OC2=C(c3ccccc3)C(=O)C(OC3OC(COC(C)=O)C(OC(C)=O)C(OC(C)=O)C3OC(C)=O)=C(c3ccccc3)C2=O)C(OC(C)=O)C(OC(C)=O)C1OC(C)=O (stereo unspecified)
inactive: [19] 91 % of control | dose: 200.0 mg/kg/injection, schedule: Q04DX002 (ip), vehicle: saline with Tween-80 91 % of control | dose: 400.0 mg/kg/injection, schedule: Q04DX002 (ip), vehicle: saline with Tween-80 95 % of control

CCNC(=O)c1c2ccccc2nc2c1c(C)c(C)c1ccccc12
inactive: [13] 108 % of control | [14] 112 % of control | [15] 106 % of control

c1ccc(Nc2n[n+](-c3ccccc3)no2)cc1
inactive: [1] 106 % of control | [2] 108 % of control | [3] 101 % of control | [4] 100 % of control | [5] 108 % of control | [6] 110 % of control

CCC[CH2][Sn]([CH2]CCC)([O][Sn]([CH2]CCC)([CH2]CCC)[S]C#N)[S]C#N
inactive: dose: 6.25 mg/kg/injection, schedule: Q01DX009 (ip), vehicle: Klucel (hydroxypropylcellulose) (HPC) 95 % of control | dose: 12.5 mg/kg/injection, schedule: Q01DX009 (ip), vehicle: Klucel (hydroxypropylcellulose) (HPC) 97 % of control | dose: 25.0 mg/kg/injection, schedule: Q01DX009 (ip), vehicle: Klucel (hydroxypropylcellulose) (HPC) 89 % of control

CN(C(=O)c1ccncc1)c1ccccc1
inactive: dose: 50.0 mg/kg/injection, schedule: Q01DX009 (ip), vehicle: carboxymethylcellulose (CMC) 93 % of control and 98 % of control | dose: 50.0 mg/kg/injection, schedule: Q04DX002 (ip), vehicle: carboxymethylcellulose (CMC) 95 % of control and 100 % of control | dose: 50.0 mg/kg/injection, schedule: Q04DX003 (ip), vehicle: carboxymethylcellulose (CMC) 95 % of control | dose: 100.0 mg/kg/injection, schedule: Q01DX009 (ip), vehicle: carboxymethylcellulose (CMC) 98 % of control and 90 % of control | dose: 100.0 mg/kg/injection, schedule: Q04DX002 (ip), vehicle: carboxymethylcellulose (CMC) 100 % of control (2×) and 106 % of control | [20] 97 % of control | dose: 200.0 mg/kg/injection, schedule: Q01DX009 (ip), vehicle: carboxymethylcellulose (CMC) 90 % of control and 91 % of control | dose: 200.0 mg/kg/injection, schedule: Q04DX002 (ip), vehicle: carboxymethylcellulose (CMC) 97 % of control (2×) and 98 % of control | [21] 98 % of control | dose: 400.0 mg/kg/injection, schedule: Q04DX002 (ip), vehicle: carboxymethylcellulose (CMC) 93 % of control

CCCCCCCCCCCCCCCCCOc1ccc(Sc2ccc([N+](=O)[O-])cc2)cc1
inactive: [14] 92 % of control

CC(=O)N(/C=C/C=C/C=C1\C(=O)N(c2ccc(S(=O)(=O)O)cc2)N=C1C)c1ccccc1
inactive: [16] 99 % of control | [17] 98 % of control | [18] 88 % of control

CCNC(=S)NCC
inactive: [20] 98 % of control | [21] 102 % of control | dose: 400.0 mg/kg/injection, schedule: Q04DX003 (ip), vehicle: carboxymethylcellulose (CMC) 107 % of control

O=C(OCC(OC(=O)c1ccccc1)C(OC(=O)c1ccccc1)C(OC(=O)c1ccccc1)C(SCc1ccccc1)SCc1ccccc1)c1ccccc1 (stereo unspecified)
inactive: dose: 100.0 mg/kg/injection, schedule: Q01DX001 (ip), vehicle: carboxymethylcellulose (CMC) 101 % of control | dose: 200.0 mg/kg/injection, schedule: Q01DX001 (ip), vehicle: carboxymethylcellulose (CMC) 97 % of control | dose: 400.0 mg/kg/injection, schedule: Q01DX001 (ip), vehicle: carboxymethylcellulose (CMC) 95 % of control

COc1ccc(CCNC(=O)c2ccc(Cl)c(Cl)c2)cc1OC
inactive: dose: 25.0 mg/kg/injection, schedule: Q04DX002 (ip), vehicle: saline with Tween-80 100 % of control | dose: 50.0 mg/kg/injection, schedule: Q04DX002 (ip), vehicle: saline with Tween-80 96 % of control | [19] 106 % of control and 107 % of control

C=CCc1cn(C2OC(COC(=O)c3ccccc3)C(OC(=O)c3ccccc3)C2OC(=O)c2ccccc2)c(=O)[nH]c1=O (stereo unspecified)
inactive: dose: 12.5 mg/kg/injection, schedule: Q01DX005 (ip), vehicle: saline 92 % of control | dose: 12.5 mg/kg/injection, schedule: Q01DX009 (ip), vehicle: saline 95 % of control | dose: 25.0 mg/kg/injection, schedule: Q01DX005 (ip), vehicle: saline 92 % of control | dose: 25.0 mg/kg/injection, schedule: Q01DX009 (ip), vehicle: saline 95 % of control | dose: 50.0 mg/kg/injection, schedule: Q01DX005 (ip), vehicle: saline 94 % of control | dose: 50.0 mg/kg/injection, schedule: Q01DX009 (ip), vehicle: saline 98 % of control
